Assay: Binding affinity against opioid receptor delta 1 using [3H]naltrindole as radioligand in guinea pig brain membranes.

Point of comparison: `NC(=O)c1ccc2c(c1)[C@@]13CCCC[C@H]1[C@@H](C2=O)N(CC1CCC1)CC3` [3-Carboxamido-10-keto-N-cyclobutylmethylmorphinan], Ki 50 nM. Against it:
- c1cc2c(cc1-c1nnn[nH]1)[C@@]13CCCC[C@H]1[C@@H](C2)N(CC1CCC1)CC3 [3-(1'H-Tetrazol-5'-yl)-N-cyclobutylmethylmorphinan] — higher, > 10000 nM
- CN1CC[C@]23CCCC[C@H]2[C@H]1Cc1ccc(-c2nnn[nH]2)cc13 [3-(1'H-Tetrazol-5'-yl)-N-methylmorphinan] — higher, > 10000 nM
- Nc1ccc2c(c1)[C@@]13CCCC[C@H]1[C@@H](C2=O)N(CC1CCC1)CC3 [3-Amino-10-keto-N-cyclobutylmethylmorphinan] — 12-fold higher, 600 nM
- NCc1ccc2c(c1)[C@@]13CCCC[C@H]1[C@@H](C2)N(CC1CCC1)CC3 [3-Aminomethyl-N-cyclobutylmethylmorphinan] — 8.2-fold higher, 410 nM
- CN1CC[C@]23CCCC[C@H]2[C@H]1Cc1ccc(CN)cc13 [3-Aminomethyl-N-methylmorphinan] — 50-fold higher, 2500 nM
- NC(=O)c1ccc2c(c1)[C@@]13CCCC[C@H]1[C@@H](C2)N(CC1CCC1)CC3 [3-Carboxamido-N-cyclobutylmethylmorphinan] — 12-fold lower, 4 nM
- NC(=O)c1ccc2c(c1)[C@@]13CCCC[C@H]1[C@@H](C2)N(CC1CC1)CC3 [3-Carboxamido-N-cyclopropylmethylmorphinan] — 50-fold lower, 1 nM
- CN1CC[C@]23CCCC[C@H]2[C@H]1Cc1ccc(C(N)=O)cc13 [3-Carboxamido-N-methylmorphinan] — 3.8-fold lower, 13 nM
- O=C(O)c1ccc2c(c1)[C@@]13CCCC[C@H]1[C@@H](C2=O)N(CC1CCC1)CC3 [3-Carboxyl-10-keto-N-cyclobutylmethyl morphinan] — 16-fold higher, 800 nM
- N#Cc1ccc2c(c1)[C@@]13CCCC[C@H]1[C@@H](C2=O)N(CC1CCC1)CC3 [3-Cyano-10-keto-N-cyclobutylmethylmorphinan] — higher, > 10000 nM
- N#Cc1ccc2c(c1)[C@@]13CCCC[C@H]1[C@@H](C2)N(CC1CCC1)CC3 [3-Cyano-N-cyclobutylmethylmorphinan] — 38-fold higher, 1900 nM
- CN1CC[C@]23CCCC[C@H]2[C@H]1Cc1ccc(C#N)cc13 [3-Cyano-N-methylmorphinan] — higher, > 1000 nM
- O=C1c2ccc(O)cc2[C@@]23CCCC[C@H]2[C@@H]1N(CCF)CC3 [3-Hydroxy-10-keto-N-(2-fluoroethyl)morphinan] — higher, > 10000 nM
- COCCN1CC[C@]23CCCC[C@H]2[C@H]1C(=O)c1ccc(O)cc13 [3-Hydroxy-10-keto-N-(2-methoxyethyl)morphinan] — higher, > 10000 nM
- O=C1c2ccc(O)cc2[C@@]23CCCC[C@H]2[C@@H]1N(Cc1ccc2ccccc2c1)CC3 [3-Hydroxy-10-keto-N-(2-naphthylmethyl)morphinan] — higher, > 10000 nM
- CC(C)=CCN1CC[C@]23CCCC[C@H]2[C@H]1C(=O)c1ccc(O)cc13 [3-Hydroxy-10-keto-N-(3,3-dimethylallyl)morphinan] — 22-fold higher, 1100 nM
- O=C1c2ccc(O)cc2[C@@]23CCCC[C@H]2[C@@H]1N(C[C@@H]1CCCO1)CC3 [3-Hydroxy-10-keto-N-(tetrahydrofuran-2-yl)methylmorphinan] — 50-fold lower, 1 nM
- O=C1c2ccc(O)cc2[C@@]23CCCC[C@H]2[C@@H]1N(CC1CC1)CC3 [3-Hydroxy-10-keto-N-cyclopropylmethylmorphinan] — 3-fold higher, 150 nM
- CN1CC[C@]23CCCC[C@H]2[C@H]1C(=O)c1ccc(O)cc13 [3-Hydroxy-10-keto-N-methylmorphinan] — 24-fold higher, 1200 nM
- COc1ccc2c(c1)[C@@]13CCCC[C@H]1[C@H](NCC3)C2=O [3-Methoxy normorphinan] — 3.1-fold lower, 16 nM
- O=C1c2ccc(OCC3CCC3)cc2[C@@]23CCCC[C@H]2[C@@H]1N(CC1CCC1)CC3 [3-O-Cyclobutylmethyl-10-keto-N-cyclobutylmethylmorphinan] — higher, > 10000 nM
- C#CCOc1ccc2c(c1)[C@@]13CCCC[C@H]1[C@@H](C2=O)N(CC#C)CC3 [3-O-Propargyl-10-keto-N-propargylmorphinan] — higher, > 10000 nM
- O=C1c2ccc(-c3nnn[nH]3)cc2[C@@]23CCCC[C@H]2[C@@H]1N(CC1CCC1)CC3 [3-Tetrazolo-10-keto-N-cyclobutylmethylmorphinan] — 36-fold higher, 1800 nM
- O=C1c2ccc(O)cc2[C@@]23CCCC[C@H]2[C@@H]1NCC3 [3-hydroxy-normorphinan] — higher, > 10000 nM
